Experiments:
A. junii 1397597 [1] = assay: Checkerboard fusidic acid (FD) and colistin sulfate (CS), MIC/FIC and MBC/FBC; assay type: cell-based, Acinetobacter junii; settings: agent alone, CAMHB, 1*10^6 CFU/ml
Protocol: (§1) Checkerboard assays between fusidic acid (FD) and colistin sulfate (CS) with a bacterial load 5(1-10)*10^5 CFU/ml in cationic adapted Mueller Hinton broth (CAMHB). • a. Antimicrobial stock solutions were prepared using sterile distilled water; • b. CS was added along the ordinate; FD was added along the abscissa to 96 well, flat bottom, polystyrene panels with no treatment. Colistin alone was tested in triplicates; • c. Serial 2-fold dilutions starting with 640 […] CS and 640 μg/ml FD were made; 15 μl volume of the serial dilutions were added for each agent to the appropriate wells—final volume at 30 μl; • d. For each agent tested alone an additional 15 μl media was added to the well. 30 μl were added in control wells where none of the agent was tested. The negative control well contains 150 μl media without any additions; • e. From an overnight bacterial culture in tryptic soy broth, 100 μL was added to 10 mL of fresh tryptic soy broth. This was then incubated at 37° C. for 1.5 hour at 180 rpm; • f. Bacteria in 120 μl CAMHB were added to each well (end concentration 5(1-10)*10^5 CFU/ml); • g. Plates were incubated at 37° C. in an ambient air incubator for 24 h • h. Turbidity at OD600 is determined with a plate photometer • i. By using a one-time inoculator 3 μl from each well of the 96-well plate were transferred to three blood agar plates. The plates were incubated over night at 37° C. in an ambient air incubator; • j. MIC values are defined as lowest concentration which restricts bacterial growth to OD600≤0.1; • k. MBC values were determined by visual reading the lowest concentration which inhibits 99.9% of the growth of bacteria in the wells; • l. Determination of the fractional inhibitory concentration (FIC) index and fractional bactericidal concentration (FBC) index and characterization of antimicrobial interactions was assessed;
(§2) FIC calculation was carried out as: (MIC of drug A, tested in combination)/(MIC of drug A, tested alone)+(MIC of drug B, tested in combination)/(MIC of drug B, tested alone). FBC calculation was carried out just as well;
(§3) Interactive categories were calculated from checkerboard analysis using MIC results from testing each agent alone and MIC results from the combination wells adjacent to the wells with growth in them.
(§4) Determination of the fractional inhibitory concentration (FIC) index and fractional bactericidal concentration (FBC) index and characterization of antimicrobial interactions was assessed:
(§5) (ii) Indifference; FIC/FBC>0.5 to <4.0
(§6) (iii) Antagonism; FIC/FBC≥4.0
a. Acinetobacter junii 1391597 (IHMA), colistin resistant (CS 2/2-2/8)

A. nosocomialis 1461911 [2] = assay: as above; assay type: cell-based, Acinetobacter nosocomialis; settings: A. nosocomialis 1461911, agent alone, CAMHB, 1*10^6 CFU/ml
Protocol: as §1, §2, §3, §4, §5, §6
b. Acinetobacter nosocomialis 1461911 (IHMA), colistin resistant (3xCS 4/8)

A. haemolyticus 1655843 [3] = assay: as above; assay type: cell-based, Acinetobacter haemolyticus; settings: agent alone, CAMHB, 1*10^6 CFU/ml
Protocol: as §1, §2, §3, §4, §5, §6
c. Acinetobacter haemolyticus 1655843 (IHMA), colistin resistant (3xCS>16/>16-64/>64)

A. guillouiae 1285286 [4] = assay: as above; assay type: cell-based, Acinetobacter guillouiae; settings: agent alone, CAMHB, 1*10^6 CFU/ml
Protocol: as §1, §2, §3, §4, §5, §6
d. Acinetobacter guillouiae 1285286 (IHMA), colistin resistant (2xCS 2/4)

S. maltophilia 1221783 [5] = assay: Checkerboard fusidic acid (FD) and colistin sulfate (CS), MIC/FIC; assay type: cell-based, Stenotrophomonas maltophilia; settings: agent alone, CAMHB, 1*10^6 CFU/ml, 24 h
Protocol: Checkerboard assays between fusidic acid (FD) and colistin sulfate (CS) with a bacterial load 5(1-10)*10^5 CFU/ml in cationic adapted Mueller Hinton broth (CAMHB). • a. Antimicrobial stock solutions were prepared using sterile distilled water; • b. CS was added along the ordinate; FD was added along the abscissa to 96 well, flat bottom, polystyrene panels with no treatment. Colistin alone was tested in triplicates; • c. Serial 2-fold dilutions starting with 640 […] CS and 640 μg/ml FD were made; 15 μl volume of the serial dilutions were added for each agent to the appropriate wells—final volume at 30 μl; • d. For each agent tested alone an additional 15 μl media was added to the well. 30 μl were added in control wells where none of the agent was tested. […] Turbidity at OD600 is determined with a plate photometer • i. […] Determination of the fractional inhibitory concentration (FIC) index and fractional bactericidal concentration (FBC) index and characterization of antimicrobial interactions was assessed; […]
as §3
Determination of the fractional inhibitory concentration (FIC) index and fractional bactericidal concentration (FBC) index and characterization of antimicrobial interactions was assessed: […]

S. maltophilia 1237289 [6] = assay: as above; assay type: cell-based, Stenotrophomonas maltophilia; settings: S. maltophilia 1237289, agent alone, CAMHB, 1*10^6 CFU/ml
Protocol: as §1, §2, §3, §4, §5, §6
e. Stenotrophomonas maltophilia 1237289 (IHMA), colistin resistant (CS 2/4-4/8-8/8)

A. junii 1397597 [7] = assay: Checkerboard colistin sulphate (CS) plus teicoplanin (TP), MIC/FIC and MBC/FBC; assay type: cell-based, Acinetobacter junii; settings: agent alone, CAMHB, 5*10^5 CFU/ml
Protocol: (§7) Checkerboard analysis to determine minimal inhibitory concentration (MIC)/fractional inhibitory concentration (FIC) and minimal bacterial concentration (MBC)/fractional bacterial concentration (FBC) values of colistin sulphate (CS) plus teicoplanin (TP) for 6 Gram-negative strains with a bacterial load 5(1-10)*10^5 CFU/ml in a cation-adjusted Mueller-Hinton broth (CAMHB). • a. Antimicrobial stock solutions were prepared using sterile distilled water • b. CS was added along the ordinate; TP was added along the abscissa to 96 well, flat bottom, polystyrene panels with no treatment. Colistin alone was tested in triplicates. • c. Serial 2-fold dilutions starting with 640 μg/ml CS and 640 μg/ml TP were made; 15 μl volume of the serial dilutions were added for each agent to the appropriate wells; final volume at 30 μl • d. For each agent tested alone an additional 15 μl media was added to the well. 30 μl were added in control wells where none of the agent was tested. The negative control well contains 150 μl media without any additions • e. From an overnight bacterial culture in tryptic soy broth, 100 μL was added to 10 mL of fresh tryptic soy broth. This was then incubated at 37° C. for 1.5 hour at 180 rpm. • f. Bacteria in 120 μl CAMHB were added to each well (end concentration 5(1-10)*10^5 CFU/ml) • g. Plates were incubated at 37° C. in an ambient air incubator for 24 h • h. Turbidity at OD600 is determined with a plate photometer • i. By using a one-time inoculator 3 μl from each well of the 96-well plate were transferred to three blood agar plates. The plates were incubated over night at 37° C. in an ambient air incubator • j. […] Determination of the fractional inhibitory concentration (FIC) index and fractional bactericidal concentration (FBC) index and characterization of antimicrobial interactions was assessed […]
(§8) Interactive categories were calculated from checkerboard analysis using MIC results from testing each agent alone and MIC results from the combination wells adjacent to the wells with growth in them […]

A. nosocomialis 1461911 [8] = assay: as above; assay type: cell-based, Acinetobacter nosocomialis; settings: agent alone, CAMHB, 5*10^5 CFU/ml
Protocol: (§9) Checkerboard analysis to determine minimal inhibitory concentration (MIC)/fractional inhibitory concentration (FIC) and minimal […] (MBC)/fractional […] (FBC) values of colistin sulphate (CS) plus teicoplanin (TP) for 6 Gram-negative strains with a bacterial load 5(1-10)*10^5 CFU/ml in a cation-adjusted Mueller-Hinton broth (CAMHB). • a. Antimicrobial stock solutions were prepared using sterile distilled water • b. CS was added along the ordinate; TP was added along the abscissa to 96 well, flat bottom, polystyrene panels with no treatment. Colistin alone was tested in triplicates. • c. Serial 2-fold dilutions starting with 640 μg/ml CS and 640 μg/ml TP were made; 15 μl volume of the serial dilutions were added for each agent to the appropriate wells; final volume at 30 μl • d. For each agent tested alone an additional 15 μl media was added to the well. 30 μl were added in control wells where none of the agent was tested. The negative control well contains 150 μl media without any additions • e. From an overnight bacterial culture in tryptic soy broth, 100 μL was added to 10 mL of fresh tryptic soy broth. This was then incubated at 37° C. for 1.5 hour at 180 rpm. • f. Bacteria in 120 μl CAMHB were added to each well (end concentration 5(1-10)*10^5 CFU/ml) • g. Plates were incubated at 37° C. in an ambient air incubator for 24 h • h. Turbidity at OD600 is determined with a plate photometer • i. By using a one-time inoculator 3 μl from each well of the 96-well plate were transferred to three blood agar plates. The plates were incubated over night at 37° C. in an ambient air incubator • j. MIC values are defined as lowest concentration which restricts bacterial growth to OD600 ≤0.1 • k. MBC values were determined by visual reading the lowest concentration which inhibits 99.9% of the growth of bacteria in the wells • l. Determination of the fractional inhibitory concentration (FIC) index and fractional bactericidal concentration (FBC) index and characterization of antimicrobial interactions was assessed […]
(§10) FIC calculation was carried out as: (MIC of drug A, tested in combination)/(MIC of drug A, tested alone)+(MIC of drug B, tested in combination)/(MIC of drug B, tested alone). FBC calculation was carried out just as well […]
as §8
b. Indifference; FIC/FBC>0.5 to<4.0 c. Antagonism; FIC/FBC≥4.0 b. A. nosocomialis 1461911 (IHMA), colistin resistant

A. haemolyticus 1655843 [9] = assay: as above; assay type: cell-based, Acinetobacter haemolyticus; settings: agent alone, CAMHB, 5*10^5 CFU/ml
Protocol: as §9, §10, §8
b. Indifference; FIC/FBC>0.5 to<4.0 c. Antagonism; FIC/FBC≥4.0 c. A. haemolyticus 1655843 (IHMA), colistin resistant

A. guillouiae 1285286 [10] = assay: as above; assay type: cell-based, Acinetobacter guillouiae; settings: agent alone, CAMHB, 5*10^5 CFU/ml
Protocol: as §9, §10, §8
b. Indifference; FIC/FBC>0.5 to<4.0 c. Antagonism; FIC/FBC≥4.0 d. A. guillouiae 1285286 (IHMA), colistin resistant

S. maltophilia 1221783 [11] = assay: as above; assay type: cell-based, Stenotrophomonas maltophilia; settings: agent alone, CAMHB, 5*10^5 CFU/ml, 24 h
Protocol: as §7, §8

S. maltophilia 1237289 [12] = assay: as above; assay type: cell-based, Stenotrophomonas maltophilia; settings: S. maltophilia 1237289, agent alone, CAMHB, 5*10^5 CFU/ml
Protocol: as §9, with “Plates were incubated at 37° C. in an ambient air incubator for 24 h • h.” left out
as §10, §8
b. Indifference; FIC/FBC>0.5 to<4.0 c. Antagonism; FIC/FBC≥4.0 f. S. maltophilia 1237289 (IHMA), colistin resistant

[13] = system: Methicillin-resistant Staphylococcus aureus (MRSA); assay: Three-step decolonization protocol for MRSA in paediatric patients with cystic fibrosis; assay type: in vivo; settings: patients are to receive a further five-day intravenous treatment to increase the success rate
Protocol: Methicillin-resistant Staphylococcus aureus (MRSA) is a bacterial pathogen in patients with cystic fibrosis (CF) although its clinical effects can be variable. In a three-step decolonization protocol for MRSA 15 paediatric patients are treated during a long follow-up period where 50% are successfully decolonized following one five-day course of i.v. Colistin and fusidic acid. To increase the success rate the patients are to receive a five-day intravenous teicoplanin treatment to clear MRSA colonization to 90-100%.

[14] = in vivo; cited from earlier work
[15] = after 48 h growth (values in brackets)

Compound: CC(=O)O[C@H]1C[C@@]2(C)[C@@H](C[C@@H](O)[C@H]3[C@@]4(C)CC[C@@H](O)[C@@H](C)[C@@H]4CC[C@@]32C)/C1=C(\CCC=C(C)C)C(=O)O [FD, fusidic acid]
- MIC (A. junii 1397597 [1]; A. junii 1397597, 24 h): 32 mg/1l
- MBC (A. junii 1397597 [1]; Acinetobacter junii, 1397597, A. junii 1397597): 64 µg/mL
- MIC (A. nosocomialis 1461911 [2]; 24 h): >64 mg/1l
- MBC (A. nosocomialis 1461911 [2]; Acinetobacter nosocomialis): > 64 µg/mL
- MIC (A. haemolyticus 1655843 [3]; A. haemolyticus 1655843, 24 h): 32 mg/1l
- MBC (A. haemolyticus 1655843 [3]; Acinetobacter haemolyticus, 1655843, A. haemolyticus 1655843): 64 µg/mL
- MIC (A. guillouiae 1285286 [4]; A. guillouiae 1285286, 24 h): 16 mg/1l
- MBC (A. guillouiae 1285286 [4]; Acinetobacter guillouiae, 1285286, A. guillouiae, read-out: MBC): > 64 µg/mL
- MIC (S. maltophilia 1221783 [5]): 64 mg/1l
- MIC (S. maltophilia 1237289 [6]; 24 h): >64 mg/1l
- MIC (S. maltophilia 1237289 [6]; [15]): (>64) mg/1l

Compound: teicoplanin [TP]
- MIC (A. junii 1397597 [7]; A. junii 1397597, 24 h): >64 µg/mL
- MBC (A. junii 1397597 [7]; A. junii): >64 µg/mL
- MIC (A. nosocomialis 1461911 [8]; A. nosocomialis 1461911, 24 h): >64 µg/mL
- MBC (A. nosocomialis 1461911 [8]; A. nosocomialis): >64 µg/mL
- MIC (A. haemolyticus 1655843 [9]; A. haemolyticus 1655843, 24 h): >64 µg/mL
- MBC (A. haemolyticus 1655843 [9]; A. haemolyticus): >64 µg/mL
- MIC (A. guillouiae 1285286 [10]; A. guillouiae 1285286, 24 h): >64 µg/mL
- MBC (A. guillouiae 1285286 [10]; A. guillouiae): >64 µg/mL
- MIC (S. maltophilia 1221783 [11]): >64 µg/mL
- MIC (S. maltophilia 1237289 [12]; 24 h): >64 µg/mL
- MIC (S. maltophilia 1237289 [12]; [15]): (>64) mg/l
- clear MRSA colonization to [13]: 90-100%
- terminal half-life, mean (±SD) [14]: 157 (±93) h
- terminal half-life, median (range) [14]: 168 (111-278) h
